Measurements reported in PMC5218480 (PLoS ONE, 2017).

Tested on: MV-4-11 cells
Experiment: Gene expression microarray analysis (Affymetrix PrimeView) and GSEA
Assay type: cell-based, human
Design: RFU PODN (11730768_x_at) / Fold change /veh PODN (11730768_x_at) / RFU LINC00158 (11744669_a_at) / Fold change /veh LINC00158 (11744669_a_at) / RFU DUSP10 (11751237_a_at) / Fold change /veh DUSP10 (11751237_a_at) / RFU ID3 (11757404_x_at) / Fold change /veh ID3 (11757404_x_at) / RFU PLEKHG5 (11737974_s_at) / Fold change /veh PLEKHG5 (11737974_s_at) / RFU LRRC4B (11730491_at) / Fold change /veh LRRC4B (11730491_at) / RFU GIMAP4 (11747438_a_at) / Fold change /veh GIMAP4 (11747438_a_at) / RFU KRT8 (11758183_x_at) / Fold change /veh KRT8 (11758183_x_at) / RFU CNN1 (11734310_a_at) / Fold change /veh CNN1 (11734310_a_at) / RFU VPS37D (11726825_at) / Fold change /veh VPS37D (11726825_at) / RFU C10orf10 (11716522_x_at) / Fold change /veh C10orf10 (11716522_x_at) / RFU KIR2DL2 /// KIR2DL4 /// KIR2DL5A /// KIR2DL5B /// KIR2DS1 /// KIR2DS2 /// KIR2DS3 /// KIR2DS4 /// KIR3DL3 /// KIR3DL3 /// KIR3DS1 (11738374_at) / Fold change /veh KIR2DL2 /// KIR2DL4 /// KIR2DL5A /// KIR2DL5B /// KIR2DS1 /// KIR2DS2 /// KIR2DS3 /// KIR2DS4 /// KIR3DL3 /// KIR3DL3 /// KIR3DS1 (11738374_at) / RFU C1QL1 (11718748_at) / Fold change /veh C1QL1 (11718748_at) / RFU TMPRSS4 (11747572_a_at) / Fold change /veh TMPRSS4 (11747572_a_at) / RFU HAMP (11756126_x_at) / Fold change /veh HAMP (11756126_x_at) / RFU RNFT2 (11725882_a_at) / Fold change /veh RNFT2 (11725882_a_at) / RFU NR4A2 (11747474_a_at) / Fold change /veh NR4A2 (11747474_a_at) / RFU ABCC12 (11746883_a_at) / Fold change /veh ABCC12 (11746883_a_at) / RFU TMEM136 (11760407_x_at) / Fold change /veh TMEM136 (11760407_x_at) / RFU CLDN22 /// WWC2 (11732394_at) / Fold change /veh CLDN22 /// WWC2 (11732394_at) / RFU HLA-DPB1 (11760878_x_at) / Fold change /veh HLA-DPB1 (11760878_x_at) / RFU SPINT1 (11716480_a_at) / Fold change /veh SPINT1 (11716480_a_at) / RFU GAP43 (11754022_s_at) / Fold change /veh GAP43 (11754022_s_at) / RFU A4GNT (11735810_at) / Fold change /veh A4GNT (11735810_at) / RFU PRB3 (11715151_x_at) / Fold change /veh PRB3 (11715151_x_at) / RFU TUBB4B (11761932_at) / Fold change /veh TUBB4B (11761932_at) / RFU CAPN14 (11732068_a_at) / Fold change /veh CAPN14 (11732068_a_at) / RFU TMCC2 (11721928_a_at) / Fold change /veh TMCC2 (11721928_a_at) / RFU IRGQ (11745062_a_at) / Fold change /veh IRGQ (11745062_a_at) / RFU FAM174B (11720279_a_at) / Fold change /veh FAM174B (11720279_a_at) / RFU TMPRSS4 (11748680_a_at) / Fold change /veh TMPRSS4 (11748680_a_at) / RFU FAM212B (11763350_a_at) / Fold change /veh FAM212B (11763350_a_at) / RFU PLEKHG5 (11743358_a_at) / Fold change /veh PLEKHG5 (11743358_a_at) / RFU ZSCAN30 (11745921_a_at) / Fold change /veh ZSCAN30 (11745921_a_at) / RFU CMKLR1 (11741424_a_at) / Fold change /veh CMKLR1 (11741424_a_at) / RFU LOC101060620 /// MAPK8IP1 (11723275_at) / Fold change /veh LOC101060620 /// MAPK8IP1 (11723275_at) / RFU SPTSSB (11747773_x_at) / Fold change /veh SPTSSB (11747773_x_at) / RFU PRSS12 (11739890_at) / Fold change /veh PRSS12 (11739890_at) / RFU BIN1 (11741810_x_at) / Fold change /veh BIN1 (11741810_x_at) / RFU WNT11 (11732464_a_at) / Fold change /veh WNT11 (11732464_a_at) / RFU C10orf10 (11716521_a_at) / Fold change /veh C10orf10 (11716521_a_at) / RFU C5orf56 (11738089_at) / Fold change /veh C5orf56 (11738089_at) / RFU CYB561 (11721691_x_at) / Fold change /veh CYB561 (11721691_x_at) / RFU ANKRD19P (11752326_a_at) / Fold change /veh ANKRD19P (11752326_a_at) / RFU OR2T12 /// OR2T33 /// OR2T8 (11738714_s_at) / Fold change /veh OR2T12 /// OR2T33 /// OR2T8 (11738714_s_at) / RFU VCAN (11748164_a_at) / Fold change /veh VCAN (11748164_a_at) / RFU JSRP1 (11732532_at) / Fold change /veh JSRP1 (11732532_at) / RFU KRTAP10-11 (11738290_x_at) / Fold change /veh KRTAP10-11 (11738290_x_at) / RFU MYO3A (11730013_a_at) / Fold change /veh MYO3A (11730013_a_at) / RFU EBF3 (11725865_a_at) / Fold change /veh EBF3 (11725865_a_at) / RFU CAMK2N1 (11719241_x_at) / Fold change /veh CAMK2N1 (11719241_x_at) / RFU C5orf56 (11738088_a_at) / Fold change /veh C5orf56 (11738088_a_at) / RFU OLFML3 (11715873_a_at) / Fold change /veh OLFML3 (11715873_a_at) / RFU LOC100653217 /// NTM (11731650_a_at) / Fold change /veh LOC100653217 /// NTM (11731650_a_at) / RFU MAPK11 (11762145_a_at) / Fold change /veh MAPK11 (11762145_a_at) / RFU FIZ1 (11724087_x_at) / Fold change /veh FIZ1 (11724087_x_at) / RFU OASL (11726364_x_at) / Fold change /veh OASL (11726364_x_at) / RFU SOX15 (11748057_x_at) / Fold change /veh SOX15 (11748057_x_at) / RFU CD79A (11719716_a_at) / Fold change /veh CD79A (11719716_a_at) / RFU HIST1H1D (11736915_at) / Fold change /veh HIST1H1D (11736915_at) / RFU CASKIN2 (11723855_a_at) / Fold change /veh CASKIN2 (11723855_a_at) / RFU LOC730098 (11760151_x_at) / Fold change /veh LOC730098 (11760151_x_at) / RFU OR4N2 (11742367_at) / Fold change /veh OR4N2 (11742367_at) / RFU PRRT2 (11749266_a_at) / Fold change /veh PRRT2 (11749266_a_at) / RFU SNX32 (11753110_a_at) / Fold change /veh SNX32 (11753110_a_at) / RFU CDHR5 (11726645_a_at) / Fold change /veh CDHR5 (11726645_a_at) / RFU RCAN1 (11760418_a_at) / Fold change /veh RCAN1 (11760418_a_at) / RFU FAM167A (11723789_a_at) / Fold change /veh FAM167A (11723789_a_at) / RFU FAM26E (11764081_at) / Fold change /veh FAM26E (11764081_at) / RFU ISYNA1 (11749810_s_at) / Fold change /veh ISYNA1 (11749810_s_at) / RFU ACY1 (11761880_at) / Fold change /veh ACY1 (11761880_at) / RFU 11764098_at / Fold change /veh 11764098_at / RFU SAMD14 (11745864_x_at) / Fold change /veh SAMD14 (11745864_x_at) / RFU NPB (11741838_a_at) / Fold change /veh NPB (11741838_a_at) / RFU TMPRSS6 (11731388_a_at) / Fold change /veh TMPRSS6 (11731388_a_at) / RFU KRTAP10-2 (11738614_at) / Fold change /veh KRTAP10-2 (11738614_at) / RFU ARHGAP8 /// PRR5-ARHGAP8 (11727945_x_at) / Fold change /veh ARHGAP8 /// PRR5-ARHGAP8 (11727945_x_at) / RFU KRTAP5-7 /// NADSYN1 (11734609_at) / Fold change /veh KRTAP5-7 /// NADSYN1 (11734609_at) / RFU RASL12 (11751679_a_at) / Fold change /veh RASL12 (11751679_a_at) / RFU CDKN2B (11736163_a_at) / Fold change /veh CDKN2B (11736163_a_at) / RFU PRF1 (11729649_at) / Fold change /veh PRF1 (11729649_at) / RFU, ZNF638 /// ZNF638-IT1 / Fold change vs veh, ZNF638 /// ZNF638-IT1 / RFU, PANK3 / Fold change vs veh, PANK3 / RFU, SH3YL1 / Fold change vs veh, SH3YL1 / RFU, ZEB2 / Fold change vs veh, ZEB2 / RFU, NRIP1 / Fold change vs veh, NRIP1 / RFU, PTTG1IP / Fold change vs veh, PTTG1IP / RFU, CAPN2 / Fold change vs veh, CAPN2 / RFU, MED14 / Fold change vs veh, MED14 / RFU, SNORA58 / Fold change vs veh, SNORA58 / RFU, C1orf63 / Fold change vs veh, C1orf63 / RFU, LRRFIP1 / Fold change vs veh, LRRFIP1 / RFU, NDUFAF7 / Fold change vs veh, NDUFAF7 / RFU, SLC12A2 / Fold change vs veh, SLC12A2 / RFU, IBTK / Fold change vs veh, IBTK / RFU, ESF1 / Fold change vs veh, ESF1 / Fold change vs veh, TMEM50B / RFU, TAOK1 / Fold change vs veh, TAOK1 / RFU, ACBD3 / Fold change vs veh, ACBD3 / RFU, TMA16 / Fold change vs veh, TMA16 / RFU, RWDD3 / Fold change vs veh, RWDD3 / RFU, BCAT1 / Fold change vs veh, BCAT1 / RFU, EDEM3 / Fold change vs veh, EDEM3 / RFU, TMEM33 / Fold change vs veh, TMEM33 / RFU, WDR75 / Fold change vs veh, WDR75 / RFU, AHCTF1 / Fold change vs veh, AHCTF1 / RFU, TFRC / Fold change vs veh, TFRC / RFU, ZDHHC17 / Fold change vs veh, ZDHHC17 / RFU, NOM1 / Fold change vs veh, NOM1 / RFU, ARL8B / Fold change vs veh, ARL8B / RFU, ZBTB11 / Fold change vs veh, ZBTB11 / RFU, TAMM41 / Fold change vs veh, TAMM41 / RFU, KIAA1704 /// LOC100996395 / Fold change vs veh, KIAA1704 /// LOC100996395 / RFU, ING1 / Fold change vs veh, ING1 / RFU, TRMT61B / Fold change vs veh, TRMT61B / RFU, FUBP3 / Fold change vs veh, FUBP3 / RFU, TP53 / Fold change vs veh, TP53 / RFU, TNKS2 / Fold change vs veh, TNKS2 / RFU, ZFP14 / Fold change vs veh, ZFP14 / RFU, ACTR2 / Fold change vs veh, ACTR2 / RFU, PPP3R1 / Fold change vs veh, PPP3R1 / RFU, PIK3R1 / Fold change vs veh, PIK3R1 / RFU, HNRNPA1 / Fold change vs veh, HNRNPA1 / RFU, RNF170 / Fold change vs veh, RNF170 / RFU, ZNF28 / Fold change vs veh, ZNF28 / RFU, RNGTT / Fold change vs veh, RNGTT / RFU, OGT / Fold change vs veh, OGT / RFU, BRD1 / Fold change vs veh, BRD1 / RFU, MARS / Fold change vs veh, MARS / RFU, ZNF655 / Fold change vs veh, ZNF655 / RFU, FAHD1 / Fold change vs veh, FAHD1 / RFU, BDP1 / Fold change vs veh, BDP1 / RFU, LRRCC1 / Fold change vs veh, LRRCC1 / RFU, ARID1A / Fold change vs veh, ARID1A / RFU, ZNF146 / Fold change vs veh, ZNF146 / RFU, ZNF330 / Fold change vs veh, ZNF330 / RFU, GPN3 / Fold change vs veh, GPN3 / RFU, C9orf123 / Fold change vs veh, C9orf123 / RFU, N4BP2L2 / Fold change vs veh, N4BP2L2 / RFU, ARFIP1 / Fold change vs veh, ARFIP1 / RFU, FAM179B / Fold change vs veh, FAM179B / RFU, BCL10 / Fold change vs veh, BCL10 / RFU, UHRF1BP1L / Fold change vs veh, UHRF1BP1L / RFU, BET1 / Fold change vs veh, BET1 / RFU, CNOT2 / Fold change vs veh, CNOT2 / RFU, ZNF268 / Fold change vs veh, ZNF268 / Fold change vs veh, ZNF507 / RFU, DGCR2 / Fold change vs veh, DGCR2 / RFU, WDSUB1 / Fold change vs veh, WDSUB1 / Fold change vs veh, HSP90B1 /// MIR3652 / RFU, ADSS / Fold change vs veh, ADSS / RFU, GK / Fold change vs veh, GK / RFU, ZNF148 / Fold change vs veh, ZNF148 / RFU, TAF9 / Fold change vs veh, TAF9 / RFU, SLC1A5 / Fold change vs veh, SLC1A5 / RFU, SLMO2 / Fold change vs veh, SLMO2 / RFU, ABCC4 / Fold change vs veh, ABCC4 / RFU, LOC101060439 /// RAP1B / Fold change vs veh, LOC101060439 /// RAP1B / RFU, RFX7 / Fold change vs veh, RFX7 / RFU, GTPBP10 / Fold change vs veh, GTPBP10 / RFU, CNEP1R1 / Fold change vs veh, CNEP1R1 / RFU, BIVM-ERCC5 /// ERCC5 / Fold change vs veh, BIVM-ERCC5 /// ERCC5 / RFU, ILF3 / Fold change vs veh, ILF3 / RFU 11762660_at / Fold change /veh 11762660_at / RFU VCAN (11757783_s_at) / Fold change /veh VCAN (11757783_s_at) / RFU DDX43 (11728927_at) / Fold change /veh DDX43 (11728927_at) / RFU KRT8 (11758188_x_at) / Fold change /veh KRT8 (11758188_x_at) / RFU NKD1 (11759106_at) / Fold change /veh NKD1 (11759106_at) / RFU SRD5A1 (11742802_a_at) / Fold change /veh SRD5A1 (11742802_a_at) / RFU TPSAB1 /// TPSB2 (11721975_s_at) / Fold change /veh TPSAB1 /// TPSB2 (11721975_s_at) / RFU GSTM3 (11746129_a_at) / Fold change /veh GSTM3 (11746129_a_at) / RFU IL23R (11737362_x_at) / Fold change /veh IL23R (11737362_x_at) / RFU TMEM51 (11727254_a_at) / Fold change /veh TMEM51 (11727254_a_at) / RFU PIWIL2 (11732686_x_at) / Fold change /veh PIWIL2 (11732686_x_at) / RFU ORM1 (11744905_x_at) / Fold change /veh ORM1 (11744905_x_at) / RFU CCDC152 (11743942_at) / Fold change /veh CCDC152 (11743942_at) / RFU ECM1 (11717891_a_at) / Fold change /veh ECM1 (11717891_a_at) / RFU IL23R (11748794_a_at) / Fold change /veh IL23R (11748794_a_at) / RFU TNFAIP8L3 (11732012_x_at) / Fold change /veh TNFAIP8L3 (11732012_x_at) / RFU MBOAT4 (11741988_at) / Fold change /veh MBOAT4 (11741988_at) / RFU 11764193_at / Fold change /veh 11764193_at / RFU TMEM53 (11763286_at) / Fold change /veh TMEM53 (11763286_at) / RFU MAGEB2 (11727129_at) / Fold change /veh MAGEB2 (11727129_at) / RFU TMEM200A (11744735_a_at) / Fold change /veh TMEM200A (11744735_a_at) / RFU CCDC152 (11751479_a_at) / Fold change /veh CCDC152 (11751479_a_at) / RFU FAM211A (11726209_a_at) / Fold change /veh FAM211A (11726209_a_at) / RFU RGS16 (11746705_a_at) / Fold change /veh RGS16 (11746705_a_at) / RFU VCAN (11755009_s_at) / Fold change /veh VCAN (11755009_s_at) / RFU RHOB (11743442_s_at) / Fold change /veh RHOB (11743442_s_at) / RFU RGS16 (11720943_a_at) / Fold change /veh RGS16 (11720943_a_at) / RFU RGS16 (11720944_at) / Fold change /veh RGS16 (11720944_at) / RFU, VPS4B / Fold change vs veh, VPS4B / RFU, CREB1 / Fold change vs veh, CREB1 / RFU, DNAJC13 / Fold change vs veh, DNAJC13 / RFU, GNAQ / Fold change vs veh, GNAQ / RFU, CDK5R1 / Fold change vs veh, CDK5R1 / RFU, ZRANB3 / Fold change vs veh, ZRANB3 / RFU, CUL4A / Fold change vs veh, CUL4A / RFU, CCNY / Fold change vs veh, CCNY / RFU, UFL1 / Fold change vs veh, UFL1 / RFU, COG3 / Fold change vs veh, COG3 / RFU, DIAPH2 / Fold change vs veh, DIAPH2 / RFU, SKA2 / Fold change vs veh, SKA2 / RFU, AFF3 / Fold change vs veh, AFF3 / RFU, LMF1 / Fold change vs veh, LMF1 / RFU, IPO11 / Fold change vs veh, IPO11 / RFU, DFFB / Fold change vs veh, DFFB / RFU, FOXP1 / Fold change vs veh, FOXP1 / RFU, CARD8 / Fold change vs veh, CARD8 / RFU, STRN3 / Fold change vs veh, STRN3 / RFU, ADK / Fold change vs veh, ADK / RFU, RASSF2 / Fold change vs veh, RASSF2 / RFU, WIPF1 / Fold change vs veh, WIPF1 / RFU, LARP1B / Fold change vs veh, LARP1B / RFU, RASA1 / Fold change vs veh, RASA1 / RFU, RB1 / Fold change vs veh, RB1 / RFU, PPFIA1 / Fold change vs veh, PPFIA1 / RFU, MAT2A / Fold change vs veh, MAT2A / RFU, CCT5 / Fold change vs veh, CCT5 / RFU, WDR92 / Fold change vs veh, WDR92 / RFU, CUX1 / Fold change vs veh, CUX1 / RFU, TTC7A / Fold change vs veh, TTC7A / RFU, TMEM135 / Fold change vs veh, TMEM135 / RFU, DEPTOR / Fold change vs veh, DEPTOR / RFU, CPM / Fold change vs veh, CPM / RFU, DNAJB6 / Fold change vs veh, DNAJB6 / RFU, CACNA2D3 / Fold change vs veh, CACNA2D3 / RFU, DTX4 / Fold change vs veh, DTX4 / RFU, TFCP2 / Fold change vs veh, TFCP2 / RFU, GMCL1 /// GMCL1P1 / Fold change vs veh, GMCL1 /// GMCL1P1 / RFU, AEBP2 / Fold change vs veh, AEBP2 / RFU, SNHG1 /// SNORD22 /// SNORD25 /// SNORD26 /// SNORD27 /// SNORD28 /// SNORD29 /// SNORD31 / Fold change vs veh, SNHG1 /// SNORD22 /// SNORD25 /// SNORD26 /// SNORD27 /// SNORD28 /// SNORD29 /// SNORD31 / Fold change (Aza/veh), C12orf56 (ProbeSet 11735607_a_at) / Fold change (ACY-1035/veh), C12orf56 (ProbeSet 11735607_a_at) / Fold change (Aza/veh), FGFR1OP (ProbeSet 11751329_s_at) / Fold change (ACY-1035/veh), FGFR1OP (ProbeSet 11751329_s_at) / Fold change (Aza/veh), VPS36 (ProbeSet 11739960_a_at) / Fold change (ACY-1035/veh), VPS36 (ProbeSet 11739960_a_at) / RFU SYPL1 (11715823_x_at) / Fold change /veh SYPL1 (11715823_x_at) / RFU IGFBP7 (11715501_s_at) / Fold change /veh IGFBP7 (11715501_s_at) / RFU REEP3 (11722064_at) / Fold change /veh REEP3 (11722064_at) / RFU IGLL1 (11728026_x_at) / Fold change /veh IGLL1 (11728026_x_at): dose or concentration left out as unconfirmed
Details: ProbeSet 11728879_at; LIST B

Nc1ncn([C@@H]2O[C@H](CO)[C@@H](O)[C@H]2O)c(=O)n1 [azacitidine]
Fold change vs veh, PPP3R1: 0.88
